# Measurements from paper PMC7367283, “A PIP2 substitute mediates voltage sensor-pore coupling in KCNQ activation” (Communications Biology, 2020).
# Where “and” joins values, the source holds several entries; their conditions need not be identical. Equal entries are not always repeated.
# Experiments:
# IKs channels = IKs channels (Homo sapiens, UniProt P51787); assay: Inside-out patch clamp of IKs channels expressed in Xenopus oocytes (rundown and rescue); assay type: cell-based; settings: 10 µM CP1 on intracellular side; pulses to +80 mV
# Excerpt: We tested whether CP1 can mimic PIP2 in mediating VSD-pore coupling. We co-expressed KCNQ1 with the voltage-dependent lipid phosphatase CiVSP[44] in Xenopus oocytes and recorded KCNQ1 currents using two-electrode voltage clamp with consecutive depolarizing voltage pulses. The current increased upon KCNQ1 activation at the beginning of the first voltage pulse (First trace, Fig. 2a) and then declined due to CiVSP activation to deplete PIP2[18]. A subsequent voltage pulse elicited much smaller KCNQ1 currents (Rundown trace, Fig. 2a) as a result of PIP2 depletion that had insufficient time to be replenished by endogenous enzymes between the pulses. […] Similarly, the IKs channel (KCNQ1 + KCNE1) currents decrease upon co-expression with CiVSP with consecutive voltage pulses (Fig. 2c, d), which is similar to our previous observations. […] To more directly test CP1 effects, we applied CP1 to the intracellular side of the inside-out membrane patch that expressed IKs channels. […]
# Macroscopic currents expressed in Xenopus oocytes were recorded from inside-out patches formed with borosilicate pipettes of 0.5–1.0-MΩ resistance. […]
# [1] = tested on: guinea pig ventricular myocytes; assay: Action potential recording in ventricular myocytes with normal action potentials; assay type: cell-based; set-up: actional potential duration (APD), Fig. 7h: unit not given here; settings: for actional potential duration (APD), Fig. 7h: Control-Group, individual cells
# Experimental: Fig. 7 Effects of CP1 on IKs and action potentials in cardiomyocytes. a IKs currents in guinea pig ventricular myocytes in the absence and presence of 30 µM CP1 in the whole-cell patch-clamp configuration. Holding potential: −40 mV; testing potentials: −20 to +60 mV with 10-mV increment; returning potential: −20 mV. […] Guinea pig ventricular myocytes were first perfused with 10 µM CP1 and 10 µM chromanol. After APD reached steady state, 10 µM CP1 was constitutively perfused alone. Last, CP1 was washed out for near-full reversal of APD shortening. g Effects of 0.2 µM CP1 on LQT action potentials. To mimic the LQT, 100 µM moxifloxacin was applied 2 h before the treatment of CP1. h Change of action potential duration after application of different [CP1]s (n = 5–7). Tukey–Kramer ANOVA test was used to compare control cells in different CP1 concentration, # is significant at P < 0.05. Unpaired two-tailed Student t tests were used to compare control and moxifloxacin cells at different CP1 concentration: * is significant at P < 0.05.
# In ventricular myocytes, the duration and the morphology of action potentials are determined by various ion channels. Mutations in many of these channels and drugs that modify channel functions, such as an increase in inward Na^+ currents or decrease in outward K^+ currents, may lead to a prolonged action potential duration, which results in an inherited or acquired long QT syndrome that predisposes afflicted patients to cardiac arrhythmia. An enhancement of the outward IKs current may be able to counter these mutations or drug effects, and restore the action potential duration to more normal values. […] Next, we used an IKr blocker (Moxifloxacin, Moxi) to prolong action potentials and then applied various concentrations of CP1.
# The use of guinea pigs was approved by the Stony Brook University Institutional Animal Care and Use Committee. Single ventricular myocytes were acutely enzymatically isolated from guinea pig heart as previously described. Guinea pigs, weighing 300–500 g, were sacrificed by peritoneal injection of sodium pentobarbitone (1 ml, 390 mg/ml). The isolated cells were stored in KB solution containing (in mM) 83 KCl, 30 K2HPO4, 5 MgSO4, 5 Na pyruvate, 5 β-OH-butyric acid, 20 creatine, 20 taurine, 10 glucose, and 0.5 EGTA, pH 7.2.
# Action potentials were recorded with whole-cell patch-clamp recording techniques. Current-clamp configuration was used. Freshly isolated guinea pig cardiac myocytes were placed at 1 Hz with a stimulus of 180-pA amplitude and 10-mS duration. The APD was determined at 90% repolarization. Several minutes were allowed for the APD to reach steady state before data were collected. Typical Tyrode mimic AP Solution for action potential recording was used. The bath solution is composed of (in mM) 140 NaCl, 3 KCl, 1 MgCl2, 1.8 CaCl2, 10 HEPES, and 10 Glucose, pH 7.4. The pipette solution is composed of (in mM) 115 K-aspartic acid, 35 KOH, 3 MgCl2, 10 HEPES, 11 EGTA, 5 Glucose, and 3 MgATP, pH 7.4.
compound,measurement,setting,value
"O=S(=O)([O-])Oc1c(-c2sc3c(ccc4cccc(Cl)c43)c2OS(=O)(=O)[O-])[nH]c2ccc(Br)cc12.[Na+].[Na+] [CP1, DISODIUM 5-BROMO-2-[9-CHLORO-3-(SULFONATOOXY) NAPHTHO [1,2-B] THIEN-2-YL]-1H-INDOL-3-YL SULFATE]",IKs current after rundown in inside-out patch,IKs channels,the current increased with consecutive voltage pulses
same,action potential duration,"[1]; 0.2 µM CP1, control myocytes",did not alter action potential duration
same,action potential duration (APD),[1]; 10 µM CP1 alone,significantly shortened
same,action potential duration (APD),[1]; 10 µM CP1 perfused together with 10 µM chromanol 293B,not changed
same,action potentials in control cells,[1]; 0.6 and 6 µM CP1,shortened
same,"actional potential duration (APD), Fig. 7h",[1]; 0.2 µM CP1,682 and 570 and 576 and 550 and 596 and 520
same,"actional potential duration (APD), Fig. 7h",[1]; 0.6 µM CP1,473 and 609 and 463 and 428 and 542 and 511 and 475
same,"actional potential duration (APD), Fig. 7h",[1]; 6 µM CP1,347 and 378 and 362 and 454
